Results as given in patent US20090325923A1, “NEW METHOD FOR THE TREATMENT OF INFLAMMATORY DISEASES” (TOPOTARGET SWITZERLAND SA, priority 2006, published 2009).

Key:
RAW264.7 cell line [1] = assay: TNFα mRNA levels by RT-PCR in RAW264.7 cells; assay type: cell-based, mouse; conditions: RAW 264.7, LPS in the presence of FK866, RT-PCR
Experimental: (§1) The murine RAW264.7 cell line was stimulated with LPS in the presence of FK866. TNF protein concentrations were determined by ELISA (above panel) while mRNA levels were determined by RT-PCR (below panel).
(§2) This example illustrates that FK866 inhibits TNFα secretion at a posttranscriptional level. The murine RAW 264.7 cell line was incubated in the presence of graded doses of FK866, stimulated with microbial products, and levels of TNFα released in the supernatant evaluated by ELISA.

[2] = Toxicity and tolerability in treated CIA mice (weight, histopathology, ALT, hematology); assay type: in vivo, mouse
Experimental: Test mice (n=20) were twice daily treated ip with 10 mg/kg of FK866 from the first day onward of appearance of clinical arthritis (clinical score>1) during 14 days. Placebo mice (n=20) received vehicle only. Groups of animals were compared with respect to variation of their clinical scoring, and of their weight (d) by statistical analysis using the two-way ANOVA. A semi-quantitative histological evaluation was performed on the knee sections using a 4 points (0-3) scoring system to evaluate inflammatory infiltrate and synovial hyperplasia. (c) Circulating SAA levels: Sera from placebo- and FK866-treated CIA mice at day 14 (n=8 and n=7, respectively) were prepared and analyzed by SAA ELISA according to the manufacturer's instructions.

[3] = system: human monocyte-derived dendritic cells; assay: LPS-stimulated cytokine secretion by ELISA in dendritic cells; assay type: cell-based
Experimental: (§3) Human monocytic cell line THP-1, human peripheral blood mononuclear cells (PBMC), human monocyte-derived dendritic cells, or mouse peritoneal macrophages were isolated and cultured overnight with increasing doses of FK866, and then stimulated with LPS for 6 h. The culture supernatants were tested for TNF and IL-6 content by ELISA
Human dendritic cells (mean and SD from 5 different donors) were incubated with 20 nM FK866 before stimulation with LPS or LPS+IFNγ. Pro-inflammatory cytokine levels in the supernatant were measured by ELISA after 16 h of culture.
as §3, with “This example describes the inhibition of pro-inflammatory cytokines production by the competitive small molecular weight compound inhibitor of NMPRT, ((E)-N-[4-(1-benzoylpiperidin-4-yl)butyl]-3-(pyridin-3-yl)acrylamide, designated FK866). Human” for “Human”, “ELISA.” for “ELISA”
This example describes the inhibition of other pro-inflammatory cytokine production, in addition to TNFα, IL-1β and IL-6, by FK866. Human dendritic cells from 5 different donors were cultured with FK866 before stimulation with LPS or LPS+IFNγ. The culture supernatants were tested for TNFα, IL-12 (p40 and p70), and IL-23 content by ELISA.

RAW264.7 cell line [4] = assay: Intracellular NAD by enzymatic assay in RAW264.7 cells; assay type: cell-based, mouse; conditions: RAW264.7, overnight increasing doses of FK866, LPS 2 h
Experimental: (§4) (A) The mouse macrophage cell line RAW264.7 was cultured overnight with increasing doses of FK866, and then stimulated with LPS for 2 h. The culture supernatants were tested for TNF content by ELISA and intracellular NAD levels were measured by an enzymatic assay.
(§5) (B) RAW264.7 cells were cultured overnight in the presence of FK866 and the intracellular pool of NAD was restored by co-incubation of the cells with nicotinic acid (NA). Cells were then stimulated with LPS for 2 h and the culture supernatant was tested for TNF content by ELISA.
(§6) (C) RAW264.7 cells were cultured overnight in the presence of FK866 and NAD levels were maintained by culturing the cells in the presence of extracellular NAD. Cells were then stimulated with LPS for 2 h and the culture supernatant was tested for TNF content by ELISA.
as §4, with “This example illustrates the correlation between proinflammatory cytokine secretion and NAD levels in the cell.” for “(A)”
as §5, with “In another experiment,” for “(B)”, “nicotinic acid. Nicotinic” for “nicotinic”, “is a precursor of NAD, but its transformation into NAD is not dependent upon NMPRT and is thus not inhibited by FK866.” for “(NA).”
(§7) In another experiment, RAW264.7 cells were cultured overnight in the presence of FK866 and NAD levels were maintained by culturing the cells in the presence: of extra-cellular NAD. Cells were then stimulated with LPS for 2 h and the culture supernatant was tested for TNF content by ELISA.

RAW264.7 cell line [5] = assay: LPS-stimulated TNF secretion by ELISA in RAW264.7 cells; assay type: cell-based, mouse
Experimental: as §1, §4, §5, §6, §2
as §4, with “This example illustrates the correlation between proinflammatory cytokine secretion and NAD levels in the cell.” for “(A)”
as §5, with “In another experiment,” for “(B)”, “nicotinic acid. Nicotinic” for “nicotinic”, “is a precursor of NAD, but its transformation into NAD is not dependent upon NMPRT and is thus not inhibited by FK866.” for “(NA).”
as §7

[6] = human dendritic cells from 5 donors, 20 nM FK866, LPS or LPS+IFNγ, 16 h

Compound: O=C(/C=C/c1cccnc1)NCCCCC1CCN(C(=O)c2ccccc2)CC1 [FK866, (E)-N-[4-(1-benzoylpiperidin-4-yl)butyl]-3-(pyridine-3-yl)-acrylamide]
- TNFα mRNA levels (RAW264.7 cell line [1]): did not significantly affect
- tolerability ([2]; CIA mice, 10 mg/kg ip twice daily): well tolerated
- signs of toxicity ([2]; CIA mice, 10 mg/kg ip twice daily, 14 days): no signs of toxicity
- % LYMPHO, mean ([2]; hematology of treated CIA mice): 60%
- % MONO, mean ([2]; hematology of treated CIA mice): 10.4%
- % NEUTRO, mean ([2]; hematology of treated CIA mice): 29.7%
- HCT, mean ([2]; hematology of treated CIA mice): 52.8%
- HGB, mean ([2]; hematology of treated CIA mice): 14.1 g/dL
- PLT, mean ([2]; hematology of treated CIA mice): 1688 10^3/mm^3
- RBC, mean ([2]; hematology of treated CIA mice): 9.4 10^3/mm^3
- WBC, mean ([2]; hematology of treated CIA mice): 11.5 10^6/mm^3
- weight of the mice ([2]; placebo- vs FK866-treated groups): comparable
- premature death ([2]; treated group): no premature death
- hematological examination ([2]; treated vs control mice): similarity between the treated and control mice
- histopathology of liver, spleen, lung, gut, kidney, inguinal lymph nodes and brain ([2]; vs control animals): no different from control animals
- IL-12 (p40 and p70) production [3, 6]: inhibited
- IL-23 production [3, 6]: inhibited
- TNFα production [3, 6]: inhibited
- cytokine secretion (TNF and IL-6) ([3]; human monocyte-derived dendritic cells, overnight increasing doses of FK866, LPS 6 h): inhibited cytokine secretion in a dose-dependent fashion
- intracellular NAD levels (RAW264.7 cell line [4]): inhibition of intracellular NAD levels
- TNFα secretion (RAW264.7 cell line [5]; RAW 264.7, graded doses of FK866, stimulated with LPS, ELISA): strongly inhibited
- TNF production (RAW264.7 cell line [5]; RAW264.7, overnight increasing doses of FK866, LPS 2 h): inhibition of TNF production
